Where “and” joins values, the source holds several entries; their conditions need not be identical. Equal values may be shown once. Calls of active or inactive are those of the source.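 How the source made its calls: active means compounds giving half or more protection of infected cells from virus-caused growth loss, again on retest; inactive means the rest.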 *1 amine or outer side, *2 acyl side, *3 side chain or, on linkers, in order; H or OH if unused. Where a SMILES comes first, the peptide text is derived from it. [ ]: non-standard residue; d: D form. The star is where a group is joined. ξ: configuration not given here. X15 = O=C([C@H]1CCC[C@H]1N[*:1])[*:2]; Fmoc = O=C(OCC1c2ccccc2-c2ccccc21)*; ξW = NC(Cc1c[nH]c2ccccc12)C(=O)O; ξF = NC(Cc1ccccc1)C(=O)O; Cbz = O=C(OCc1ccccc1)*; Boc = CC(C)(C)OC(=O)*; Aib = CC(C)(N)C(=O)O; ξK = NCCCCC(N)C(=O)O; ξT = CC(O)C(N)C(=O)O; OBn = c1ccc(CO*)cc1; OtBu = CC(C)(C)O*; βAla = NCCC(=O)O
Test system: CEM cells HIV-1 protection, formazan growth assay
Assay: NCI AIDS Antiviral Assay
Settings: for IC50: measured here: growth of uninfected CEM cells
Procedure, shortened: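 Five concentrations of each compound were applied to infected and uninfected human CEM cells. Protection from HIV-1 was judged from growth measured with a soluble formazan assay.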

SMILES | EC50 [µM] | IC50 | outcome
CC(C)CCCC(C)C1CCC2C3CCC4CC5(CCC4(C)C3CCC12C)NCCCS5 (configuration not stated) | > 1.58 | > 1.58 µM | 
Cc1cccc(C)c1NC(=O)/C(CC(=O)CC(c1ccccc1)c1c(O)c2ccccc2oc1=O)=N/O (configuration not stated) | > 263 | 204 µM | 
CCCCCCCCCCCOCCC1C(C(C)OCCN2CCCC2)OC2OC(C)(C)OC21 (configuration not stated) | > 200 | 9.12 µM | 
CC(C)(C)OC(=O)CC(NC(=O)OC(C)(C)C)C(=O)NC(CCCCNC(=O)OCc1ccccc1)C(=O)NC(C)(C)C(=O)NCCC(=O)OCc1ccccc1 (configuration not stated) (Boc-D(OtBu)K(Cbz)[Aib][βAla]-OBn; configuration not given here) | > 100 | > 100 µM | 
O=C(Nc1ccc(C2=NCCN2)cc1)c1ccc(C(=O)Nc2ccc(C3=NCCN3)cc2)c(Br)c1 | 8.32 | 20.9 µM | 
COC(=O)C1=COC2OC3C(C(C)O)C(=O)OC34C=CC1C24 (configuration not stated) | > 589 | 63.1 µM | 
Nc1nc(Cl)cc(NCC2(CO)CC(CCc3ccccc3)C2)n1 (configuration not stated) | > 20 | 14.8 µM | 
CCSc1nc(N)c2c(-c3ccc(OC)c(OC)c3)c3c(nc2n1)CCCC3 | > 200 | > 200 µM | 
COC(=O)C1C(OC(=O)C(Cl)(c2ccccc2)c2ccccc2)CC2CCC1N2C (configuration not stated) | > 200 | > 200 µM | 
CCCCNCc1cc(S(=O)(=O)N2CCCCC2)c2cccnc2c1O | > 47.9 | 8.91 µM | 
COc1cc(C2SCC(=O)N2c2ccc(-c3ccc(-n4c(-c5ccccc5)nc5ccccc5c4=O)cc3)cc2)ccc1O (configuration not stated) | > 200 | 67.6 µM | 
CC(=O)O[C@H]1[C@@H](OC2CCCC2(c2ccccc2)c2ccccc2)O[N+]([O-])=C[C@@]12COCc1cc3c(cc12)OCO3 (some centres not stated) | > 200 | 11.7 µM | 
Cn1c2ccccc2c2oc(CO)cc(=O)c21 | > 200 | 126 µM | 
CCOC(=O)C1(c2ccccc2)C(=O)Oc2ccccc21 (configuration not stated) | 13.2 | 64.6 µM | 
COc1cc2cc3c4cc(OC)c(OC)cc4cc[n+]3c(C)c2cc1OC (tested in a mixture with another compound) | > 93.3 | 4.17 µM | 
CCCC(C)C(N)=Nc1ccc(Cl)c(Cl)c1 (configuration not stated) | > 200 | 45.7 µM | 
N#CN=C(N)NC(=O)/C=C/C=C/c1ccc(Cl)cc1 |  |  | inactive
CCCCC1(OC(=O)CCC(=O)O)CCC2(CCC(C)C(C/C=C(C)/C=C/C(O)C(C)/C=C/C(=O)O)O2)OC1CC/C(C)=C/C(=O)O (configuration not stated) | > 3.8 | 1.29 µM | 
Cc1nc2ccc(S(=O)(=O)NS(=O)(=O)c3ccc(-c4ccccc4)cc3)cc2c(=O)n1NS(=O)(=O)c1ccc(-c2ccccc2)cc1 | > 200 | 170 µM | 
Cc1ccc(N=Nc2cc(=O)[nH]c(=O)[nH]2)cc1C | > 200 | 3.98 µM | 
O=C(/C=C/c1ccccc1)CC(=O)/C=C/c1ccccc1 | > 200 | 30.9 µM | 

SMILES | EC50 [µM] | IC50 | outcome
NC(N)=N/N=C/c1c(-c2ccc(Cl)c(Cl)c2Cl)nc2sccn12 | 0.191 | 1.07 µM | 
C(=C\c1ccc(-c2cn3cc(/C=C/C=N/NC4=NCCN4)ccc3n2)cc1)/C=N/NC1=NCCN1 |  |  | inactive
[N-]=[N+]=NC1CC(n2cc(CO)c(=O)[nH]c2=O)OC1CO (configuration not stated) | > 437 | 240 µM | 
CC(Nc1ccc(Cl)cc1)c1ccncc1 (configuration not stated) | > 200 | 72.4 µM | 
C=C(C)CS(=O)(=O)O | > 200 | > 200 µM | 
CCOc1ccccc1N1C(=O)C(=O)C(c2nc3ccccc3s2)C(=O)C1=O | > 18.2 | > 18.2 µM | 
CN(C)c1cccc(/C=C(\C#N)c2ccccc2)c1 | > 200 | 0.339 µM | 
CC1(C)C2CCC13CS(=O)(=O)N(C(=O)[C@H]1CC=CCC1)C3C2 (some centres not stated) | > 112 | > 112 µM | 
COc1ccc(C2ON(c3cccc(C)n3)CC=C2C)cc1 (configuration not stated) | > 45.7 | > 45.7 µM | 
CC(=O)OC1CN(OCC2OC(OC(C)=O)C(OC(C)=O)C(OC(C)=O)C2OC(C)=O)CC(OC(C)=O)C1OC(C)=O (configuration not stated) | > 200 | > 200 µM | 
COC(=O)c1cc(C(=CCCO)c2cc(Br)c(OC)c(C(=O)OC)c2)cc(Br)c1OC | > 200 | 12.6 µM | 
O=C1C=CC(=O)c2nc3c(nc21)[nH]c1ccccc13 | > 26.3 | 13.2 µM | 
Cc1nc(C(N)=S)sc1C(=O)CC(=O)C(=O)Nc1cccc(Cl)c1C | > 170 | > 170 µM | 
COC(=O)c1c(C)oc2ccc(OC(C)=O)cc12 |  |  | inactive
CC(C)(C)NNC(=O)CCn1[nH]c(=O)c(Cl)c(Cl)c1=O | > 407 | > 407 µM | 
O=S1(=O)Oc2cccc3cccc1c23 |  |  | inactive
c1ccc2c3nnc(c2c1)SCCSCCSc1nnc(c2ccccc12)SCCSCCS3 | > 200 | > 200 µM | 
C=C(Br)CN1CCC2(c3ccccc3)C(=O)C([Se]c3ccccc3)CCC12 (configuration not stated) | > 14.8 | > 14.8 µM | 
CCC(O)(Cc1ccc(OC)cc1)c1ccc(OC)cc1 (configuration not stated) | > 200 | 123 µM | 
CC(NC(=O)OCc1ccccc1)NC(=O)C(CC(=O)OC(C)(C)C)NC(=O)OC(C)(C)C (configuration not stated) | > 200 | > 200 µM | 
NC(N)=NS(=O)(=O)c1ccc(NNc2c3ccccc3nc3c(C(=O)Nc4ccc(S(N)(=O)=O)cc4)cccc23)cc1 | > 200 | 10.2 µM | 

SMILES | EC50 [µM] | IC50 | outcome
Nc1c(S(=O)(=O)O)cc2cc(S(=O)(=O)O)ccc2c1N=Nc1ccc(S(=O)(=O)c2ccc(N=Nc3c(N)c(S(=O)(=O)O)cc4cc(S(=O)(=O)O)ccc34)cc2)cc1 | > 64.6 | > 64.6 µM | 
CN(/N=C/c1ccccc1O)c1ccc2ccccc2n1 | > 200 | 126 µM | 
CCOc1ccc(NC(=O)/C(=N\NC(C)(C)C)C2C(=O)Nc3ccccc3S2=O)cc1 (configuration not stated) | > 42.7 | > 42.7 µM | 
Cc1ccc(C2C(C(=O)C(C)(C)C)N2S(=O)(=O)c2ccc(C)cc2)cc1 (configuration not stated) | > 200 | > 200 µM | 
O=C(NCCCN1CCCCCC1)C(c1ccccc1)C1CCCCC1 (configuration not stated) | > 200 | 36.3 µM | 
O=C(Nc1cc(C(=O)Nc2ccc(C3=NCCN3)cc2)cc(C2=NCCN2)c1)c1ccc(C(=O)Nc2cc(C(=O)Nc3ccc(C4=NCCN4)cc3)cc(C3=NCCN3)c2)cc1 | 5.37 | 89.1 µM | 
CC(=O)C1=CCC2c3[nH]c4ccccc4c3CCN2C1 (configuration not stated) | > 70.8 | > 70.8 µM | 
COc1cccc(/C=C/c2cnc3ccccc3n2)c1OC | > 200 | 151 µM | 
CCN(CC)CCC(=O)N1CCc2c([nH]c3ccccc23)C1c1cccnc1 (configuration not stated) | > 95.5 | > 95.5 µM | 
CC12CCCC(C#N)(C1)OC2=O (configuration not stated) |  |  | inactive
Nc1nn2cc3c(nc2c1N=Nc1ccccc1)-c1ccccc1C3 | > 200 | > 200 µM | 
NN1C(=O)CSC1=S | > 912 | 295 µM | 
O=C(c1ccccc1)[C@H]1Nc2ccc(Cl)cc2[C@H]2CCC[C@@H]12 | > 4.68 | > 4.68 µM | 
Cc1c(CN2CCOCC2)c(CN2CCOCC2)c(C)n1-c1ccc(Cl)cn1 | > 200 | > 200 µM | 
O=C(Nc1ccc(Cl)cc1Cl)c1c/c(=N\O)c2ccc(O)cc2o1 |  |  | inactive
C=C1CC(CCCl)(c2ccccc2)OC1=O (configuration not stated) | > 41.7 | 6.46 µM | 
CCCC(=O)N/S(=N/S(=O)(=O)c1ccc(Cl)cc1)C(Cl)(Cl)Cl (configuration not stated) | 162 | > 200 µM | 
COc1c2c(cc3c1C1(O)Cc4ccc5c(c4C[N+]1(C)CC3)OCO5)OCO2 (configuration not stated) | > 61.7 | > 61.7 µM | 
Cc1cccc(C)c1NC(=O)C(=O)CC(=O)c1sc(Nc2c(C)cccc2C)nc1C | > 200 | > 200 µM | 
CC(C)(C)OC(=O)NCCCCC(NC(=O)OCC1c2ccccc2-c2ccccc21)C(=O)N1CCCC1C(=O)NCC(N)=O (stereo not drawn) (Fmoc-Lys(Boc)-Pro-Gly-NH2; configuration not given here) | 69.2 | 91.2 µM | 
CC(O)C1NC(=O)C(CCCCN)NC(=O)C(Cc2c[nH]c3ccccc23)NC(=O)C(Cc2ccccc2)NC(=O)[C@H]2CCC[C@H]2NC(=O)C(Cc2ccccc2)NC1=O (some centres not stated) (cyclo([X15][ξF][ξW][ξK][ξT][ξF])) | > 200 | > 200 µM | 

SMILES | EC50 [µM] | IC50 | outcome
Cc1nc(SCC(=O)Nc2ccccc2)c2sc(=S)n(-c3ccccc3)c2n1 | > 501 | > 501 µM | 
CN(C)C(=N)c1ccccc1 |  |  | inactive
Clc1ccc(SSc2ccc(Cl)cc2)cc1 | > 200 | 3.31 µM and 5.13 µM | 
CC(C)c1ccccc1NC(=O)CCc1n[nH]c(=S)o1 | > 324 | > 324 µM | 
Cc1ccc(/C=N/NS(=O)(=O)c2ccc(/C=C3\NC(=O)NC3=O)cc2)cc1 | > 200 | > 200 µM | 
COC(=O)C(CCSC)NC(=O)Cc1ccc(C(=O)c2ccccc2)cc1 (configuration not stated) | > 200 | 34.7 µM | 
CCc1c(C)c2cc(N)ccc2[nH]c1=O | > 200 | 29.5 µM | 
O=[N+]([O-])c1ccccc1N=Cc1ccccc1O | > 200 | > 200 µM | 
O=C1C(c2ccccc2Cl)[C@H]2CC=C[C@H]2N1O (some centres not stated) |  |  | inactive
O=C1CCC2COc3ccc(O)c1c32 (configuration not stated) |  |  | inactive
CN1C2CCC1[C@@H](CO)[C@@H](O)C2 (some centres not stated) | > 1200 | > 1200 µM | 
CC(=O)N/C=C/c1cc(O)ccc1O |  |  | inactive
CCOC(=O)CCN1C(=O)c2ccc(NC(=O)C(=O)O)cc2S1(=O)=O | > 200 | > 200 µM | 
CSc1ccc2nncc(SC)c2c1 | > 158 | 57.5 µM | 
N#CC1(C#N)NC(c2ccccc2)C(C#N)(C#N)NC1c1ccccc1 (configuration not stated) | > 200 | > 200 µM | 
Nc1ccccc1-c1nc2ccncc2[nH]1 | > 851 | 302 µM | 
O=C1CSC2=NC3=C(COC/C3=C\c3ccc(F)cc3)C(c3ccc(F)cc3)N12 (configuration not stated) |  |  | inactive
C[C@H]1CC[P+](C)(c2ccccc2)C1 (some centres not stated) | > 912 | > 912 µM | 
O=c1[nH]c(=O)n(C2CC(O)C(CO)O2)cc1C#Cc1ccc(F)cc1 (configuration not stated) | > 724 | > 724 µM | 
COCC(O)COn1c(=O)c(C#N)[n+]([O-])c2ccccc21 (configuration not stated) | > 200 | 30.2 µM | 
CCOC(=O)NC(=O)c1cn(C2CCCCC2)c(=O)n(C)c1=O | > 81.3 | > 81.3 µM | 
